Reference: patent publication US20150056272A1, “Synergistic Antimicrobial Preparations Containing Chlorite and Hydrogen Peroxide” (S.K. Pharmaceuticals, Inc., priority 1998, published 2015)

Test system: candida albicans
Assay: Candida albicans challenge (log reduction)
Type: cell-based
Conditions: components applied separately at the same concentrations (400 ppm chlorite; 100 ppm hydrogen peroxide)

Compound | effect on candida albicans activity
chlorite | ineffective
OO [hydrogen peroxide] | ineffective
